Test results from patent US20110183336A1, “Method to Predict Responsiveness of Breast Cancer to Polyamine-Type Chemotherapy” (THE REGENTS OF THE UNIVERSITY OF CALIFORNIA, priority 2007, published 2011).

How the values were obtained:
Test in all cases: Cell growth inhibition assay (Cell Titer Glo)
Format in all cases: cell-based, human
[1] = tested on: BT483; conditions: BT483, Luminal, 72 h
Procedure: (§1) Cell culture: Breast cell lines were obtained from the ATCC and from collections developed in the laboratories of Drs. Steve Ethier and Adi Gazdar.
(§2) Cell growth inhibition assay and data analysis: Cells were plated at proper density in 96-well plates such that they would remain in log growth at the end of assay time. The cells were allowed to attach overnight before being exposed to CGC-11047 for 72 h. Drugs were dissolved in water as 100 mM stock. For the dose response study, a set of 9 doses from 5×10^−3 to 1.3×10^−8 M (final concentration) in 1:5 serial dilution were added in triplicate wells. The final DMSO concentration in the treated well was 0.3% or less. The cell growth was determined using Cell Titer Glo (CTG) assay (CellTiter-Glo Luminescent Cell Viability Assay, Promega, Madison, Wis.), with slight modification form manufacturer's protocol, at day 0 (time when drug was added) and at day 3 of drug exposure. Briefly, CTG reagent was diluted with PBS (1:1, volume: volume) and the culture media was removed from the 96-well plate prior to adding 50 μl per well of the diluted CTG reagent. Luminescence from the assay was recorded using BIO-TEK FLx800.
(§3) Data calculations were made according to the method described by the NCI/NIH DTP Human Tumor Cell Line Screen Process (http://dtp.nci.nih.gov/branches/btb/ivclsp.html) and as described previously (Monks, A et al., JNCI 83:757-766, 1991). The percent growth curve is calculated as [(T−T0)/(C−T0)]×100, where T0 is the cell count at day 0, C is the vehicle control (e.g. 0.3% DMSO without drug) cell count at day 3, and T is the cell count at the test concentration. The GI50 and TGI value are determined as the drug concentration that results in a 50% and 0% growth at 72 h drug exposure. LC50 is calculated as [(T−T0)/T0]×100=−50, when T<T0.

[2] = tested on: HCC2185; conditions: HCC2185, Luminal, 72 h
Procedure: as §1, §2, §3

[3] = tested on: SUM229PE; conditions: Basal B, 72 h
Procedure: as §1, §2, §3

[4] = tested on: AU565; conditions: AU565, Luminal, 72 h
Procedure: as §1, §2, §3

[5] = tested on: LY2; conditions: LY2, Luminal, 72 h
Procedure: as §1, §2, §3

[6] = tested on: UACC812; conditions: UACC812, Luminal, 72 h
Procedure: as §1, §2, §3

[7] = tested on: SUM52PE; conditions: Luminal, 72 h
Procedure: as §1, §2, §3

[8] = tested on: HCC1143; conditions: HCC1143, Basal A, 72 h
Procedure: as §1, §2, §3

[9] = tested on: MDAMB361; conditions: MDAMB361, Luminal, 72 h
Procedure: as §1, §2, §3

[10] = tested on: HCC1806; conditions: HCC1806, Basal A, 72 h
Procedure: as §1, §2, §3

[11] = tested on: SUM159PT; conditions: Basal B, 72 h
Procedure: as §1, §2, §3

[12] = tested on: 600MPE; conditions: Luminal, 72 h
Procedure: as §1, §2, §3

[13] = tested on: MCF12A; conditions: N, Basal B, 72 h
Procedure: as §1, §2, §3

[14] = tested on: CAMA1; conditions: CAMA1, Luminal, 72 h
Procedure: as §1, §2, §3

[15] = tested on: HCC1428; conditions: HCC1428, Luminal, 72 h
Procedure: as §1, §2, §3

[16] = tested on: SUM1315MO2; conditions: SUM1315MO2, Basal B, 72 h
Procedure: as §1, §2, §3

[17] = tested on: HCC1569; conditions: HCC1569, Basal A, 72 h
Procedure: as §1, §2, §3

[18] = tested on: BT474; conditions: BT474, Luminal, 72 h
Procedure: as §1, §2, §3

[19] = tested on: MCF10F; conditions: N, Basal A, 72 h
Procedure: as §1, §2, §3

[20] = tested on: 184A1; conditions: 184A1, HMEC, 72 h
Procedure: as §1, §2, §3

[21] = tested on: MDAMB175VII; conditions: Luminal, 72 h
Procedure: as §1, §2, §3

[22] = tested on: S1; conditions: S1, HMEC, 72 h
Procedure: as §1, §2, §3

[23] = tested on: 184B5; conditions: 184B5, HMEC, 72 h
Procedure: as §1, §2, §3

[24] = tested on: SKBR3; conditions: SKBR3, Luminal, 72 h
Procedure: as §1, §2, §3

[25] = tested on: HCC1954; conditions: HCC1954, Basal A, 72 h
Procedure: as §1, §2, §3

Question: How did the “TGI” value [1] turn out when CCNCCCNC/C=C\CNCCCNCC [CGC-11047] was run?
Answer: The value was 1300 µM.

Question: What about the GI50 ([1]; Homo sapiens, BT-483) of the same compound?
Answer: Its GI50 is 900 µM.

Question: And the “TGI” value [2]?
Answer: The value was 500 µM.

Question: What about the GI50 ([2]; Homo sapiens) of the same compound?
Answer: Its GI50 is 90 µM.

Question: What about the “TGI” value [3] of the same compound?
Answer: The value was 1100 µM.

Question: What about the GI50 ([3]; Homo sapiens) of the same compound?
Answer: The GI50 was 90 µM.

Question: What about the “TGI” value [4] of the same compound?
Answer: The value was >30 µM.

Question: And the GI50 ([4]; Homo sapiens)?
Answer: The GI50 was 40 µM.

Question: What about the GI50 ([5]; Homo sapiens) of the same compound?
Answer: Its GI50 is 1300 µM.

Question: What about the “TGI” value [5] of the same compound?
Answer: Its value is 3000 µM.

Question: And the GI50 ([6]; Homo sapiens, UACC-812)?
Answer: Its GI50 is 21 µM.

Question: And the “TGI” value [6]?
Answer: Its value is 300 µM.

Question: What about the GI50 ([7]; Homo sapiens) of the same compound?
Answer: The GI50 was 10 µM.

Question: And the “TGI” value [7]?
Answer: The value was 300 µM.

Question: And the “TGI” value [8]?
Answer: The value was 320 µM.

Question: And the GI50 ([8]; Homo sapiens)?
Answer: The GI50 was 2 µM.

Question: What about the GI50 ([9]; Homo sapiens, MDA-MB-361) of the same compound?
Answer: Its GI50 is 600 µM.

Question: And the “TGI” value [9]?
Answer: The value was 2000 µM.

Question: And the “TGI” value [10]?
Answer: The value was 330 µM.

Question: What about the GI50 ([10]; Homo sapiens) of the same compound?
Answer: Its GI50 is 0.6 µM.

Question: What about the “TGI” value [11] of the same compound?
Answer: The value was 3000 µM.

Question: What about the GI50 ([11]; Homo sapiens, SUM-159-PT) of the same compound?
Answer: Its GI50 is 200 µM.

Question: What about the GI50 ([12]; Homo sapiens) of the same compound?
Answer: Its GI50 is 2 µM.

Question: And the “TGI” value [12]?
Answer: The value was 2000 µM.

Question: What about the GI50 ([13]; Homo sapiens, MCF-12A) of the same compound?
Answer: Its GI50 is 100 µM.

Question: And the “TGI” value [13]?
Answer: Its value is >100 µM.

Question: What about the “TGI” value [14] of the same compound?
Answer: Its value is 1100 µM.

Question: And the GI50 ([14]; Homo sapiens, CAMA-1)?
Answer: The GI50 was 350 µM.

Question: And the “TGI” value [15]?
Answer: Its value is 300 µM.

Question: What about the GI50 ([15]; Homo sapiens) of the same compound?
Answer: Its GI50 is 1 µM.

Question: What about the GI50 ([16]; Homo sapiens) of the same compound?
Answer: The GI50 was 700 µM.

Question: And the “TGI” value [16]?
Answer: The value was 1300 µM.

Question: What about the “TGI” value [17] of the same compound?
Answer: Its value is 2000 µM.

Question: What about the GI50 ([17]; Homo sapiens) of the same compound?
Answer: The GI50 was 220 µM.

Question: And the “TGI” value [18]?
Answer: The value was 1000 µM.

Question: And the GI50 ([18]; Homo sapiens, BT-474)?
Answer: Its GI50 is 400 µM.

Question: And the GI50 ([19]; Homo sapiens, MCF-10F)?
Answer: Its GI50 is 100 µM.

Question: And the “TGI” value [19]?
Answer: Its value is 1100 µM.

Question: And the “TGI” value [20]?
Answer: Its value is 220 µM.

Question: What about the GI50 ([20]; Homo sapiens) of the same compound?
Answer: The GI50 was 2 µM.

Question: And the GI50 ([21]; Homo sapiens, MDA-MB-175-VII)?
Answer: The GI50 was 1000 µM.

Question: And the “TGI” value [21]?
Answer: The value was 2000 µM.

Question: And the GI50 ([22]; Homo sapiens)?
Answer: Its GI50 is 0.8 µM.

Question: And the “TGI” value [22]?
Answer: Its value is 3000 µM.

Question: And the “TGI” value [23]?
Answer: Its value is 400 µM.

Question: What about the GI50 ([23]; Homo sapiens) of the same compound?
Answer: Its GI50 is 300 µM.

Question: And the GI50 ([24]; Homo sapiens, SK-BR-3)?
Answer: Its GI50 is 5000 µM.

Question: What about the “TGI” value [24] of the same compound?
Answer: Its value is >5000 µM.

Question: What about the “TGI” value [25] of the same compound?
Answer: The value was 8 µM.

Question: And the GI50 ([25]; Homo sapiens)?
Answer: The GI50 was 1 µM.
